Reference: patent US12264156B2, “Compounds and pharmaceutical compositions thereof for the treatment of diseases” (GALAPAGOS NV, priority 2018, dated 2025)
Read-outs that look alike come from different tables or passages of the source.

How the values were obtained:
[1] = system: LPS-induced TNFα in monocyte-derived macrophages (MdM); assay: MdM assay: LPS-triggered TNFα (ELISA); format: cell-based, human
Outline: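 Human monocyte-derived macrophages from CD14+ bead-selected buffy-coat PBMCs, used on day 10, pre-treated with compound for 1 h at 37 °C (0.2% DMSO), then stimulated with 200 ng/mL LPS. Supernatant taken after 20 h for TNFα sandwich ELISA (IL-10 at 2 h).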

SIK1 = molecular target: T1, SIK1 (Homo sapiens, UniProt P57059); assay: ADP-Glo kinase assay, SIK1; format: biochemical; details: ADP-Glo SIK kinase assay
T1 construct: purchased Carna Biosciences 02-131
Outline: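 Enzyme–substrate mix was started with ATP and incubated 120 min at RT. ADP formed was quantified by ADP-Glo: 40 min ATP depletion, then 30 min detection reagent converting ADP to ATP for luciferase luminescence, which rises with kinase activity. Controls: 1% DMSO and 10 μM staurosporine (final).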

SIK3 = molecular target: T2, SIK3 (Homo sapiens, UniProt Q9Y2K2); assay: ADP-Glo kinase assay, SIK3; format: biochemical; details: ADP-Glo SIK kinase assay
T2 construct: purchased SignalChem S12-11G-100
Outline: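 ADP-Glo luminescent assay of ADP formed by SIK2 or SIK3 with substrate after ATP addition, 120 min at RT. Remaining ATP depleted 40 min, then ADP converted to ATP and read by luciferase luminescence after 30 min. Controls: 1% DMSO and 10 μM staurosporine (final).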

[2] = Homo sapiens, Macrophage, 20 h, monocyte-derived macrophages, LPS 200 ng/mL, supernatant after 20 h, read-out: TNFα EC50
[3] = monocyte-derived macrophages, LPS 200 ng/mL, supernatant after 20 h, read-out: TNFα EC50

T2 sequence (Q9Y2K2 whole entry): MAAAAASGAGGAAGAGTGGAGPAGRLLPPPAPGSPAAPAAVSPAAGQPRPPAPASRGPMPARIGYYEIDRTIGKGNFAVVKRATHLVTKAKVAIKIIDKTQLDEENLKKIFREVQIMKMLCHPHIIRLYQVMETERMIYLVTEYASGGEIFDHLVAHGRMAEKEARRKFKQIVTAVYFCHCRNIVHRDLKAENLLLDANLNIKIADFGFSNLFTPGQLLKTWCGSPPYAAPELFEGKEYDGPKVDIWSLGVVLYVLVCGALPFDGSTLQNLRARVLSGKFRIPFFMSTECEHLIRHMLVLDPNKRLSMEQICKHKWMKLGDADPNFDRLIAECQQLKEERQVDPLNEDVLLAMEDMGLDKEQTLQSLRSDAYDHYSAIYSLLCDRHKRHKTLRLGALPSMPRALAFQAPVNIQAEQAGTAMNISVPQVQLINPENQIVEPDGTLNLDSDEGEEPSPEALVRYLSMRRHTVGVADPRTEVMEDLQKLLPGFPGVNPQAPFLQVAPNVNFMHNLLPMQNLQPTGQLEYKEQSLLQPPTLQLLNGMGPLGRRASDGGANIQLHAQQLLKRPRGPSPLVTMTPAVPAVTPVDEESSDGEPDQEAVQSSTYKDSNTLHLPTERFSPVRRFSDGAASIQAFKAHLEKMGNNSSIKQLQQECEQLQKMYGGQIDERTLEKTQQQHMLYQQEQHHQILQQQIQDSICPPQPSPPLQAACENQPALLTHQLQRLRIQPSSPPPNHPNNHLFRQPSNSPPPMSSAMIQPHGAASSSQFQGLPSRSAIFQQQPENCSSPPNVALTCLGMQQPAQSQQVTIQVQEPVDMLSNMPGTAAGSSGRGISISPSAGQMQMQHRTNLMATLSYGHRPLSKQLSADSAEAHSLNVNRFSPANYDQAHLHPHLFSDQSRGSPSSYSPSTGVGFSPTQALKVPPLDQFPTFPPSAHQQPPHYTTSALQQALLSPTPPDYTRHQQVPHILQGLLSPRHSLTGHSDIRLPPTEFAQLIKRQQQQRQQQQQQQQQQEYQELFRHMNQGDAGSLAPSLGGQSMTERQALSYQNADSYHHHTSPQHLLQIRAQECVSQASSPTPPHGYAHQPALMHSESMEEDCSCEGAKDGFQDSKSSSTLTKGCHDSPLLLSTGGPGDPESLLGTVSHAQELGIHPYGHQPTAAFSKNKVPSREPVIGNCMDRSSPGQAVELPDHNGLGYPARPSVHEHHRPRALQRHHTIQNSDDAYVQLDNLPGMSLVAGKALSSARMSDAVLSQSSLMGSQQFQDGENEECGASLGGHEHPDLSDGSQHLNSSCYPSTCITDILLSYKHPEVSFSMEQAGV
T1 sequence (P57059 whole entry): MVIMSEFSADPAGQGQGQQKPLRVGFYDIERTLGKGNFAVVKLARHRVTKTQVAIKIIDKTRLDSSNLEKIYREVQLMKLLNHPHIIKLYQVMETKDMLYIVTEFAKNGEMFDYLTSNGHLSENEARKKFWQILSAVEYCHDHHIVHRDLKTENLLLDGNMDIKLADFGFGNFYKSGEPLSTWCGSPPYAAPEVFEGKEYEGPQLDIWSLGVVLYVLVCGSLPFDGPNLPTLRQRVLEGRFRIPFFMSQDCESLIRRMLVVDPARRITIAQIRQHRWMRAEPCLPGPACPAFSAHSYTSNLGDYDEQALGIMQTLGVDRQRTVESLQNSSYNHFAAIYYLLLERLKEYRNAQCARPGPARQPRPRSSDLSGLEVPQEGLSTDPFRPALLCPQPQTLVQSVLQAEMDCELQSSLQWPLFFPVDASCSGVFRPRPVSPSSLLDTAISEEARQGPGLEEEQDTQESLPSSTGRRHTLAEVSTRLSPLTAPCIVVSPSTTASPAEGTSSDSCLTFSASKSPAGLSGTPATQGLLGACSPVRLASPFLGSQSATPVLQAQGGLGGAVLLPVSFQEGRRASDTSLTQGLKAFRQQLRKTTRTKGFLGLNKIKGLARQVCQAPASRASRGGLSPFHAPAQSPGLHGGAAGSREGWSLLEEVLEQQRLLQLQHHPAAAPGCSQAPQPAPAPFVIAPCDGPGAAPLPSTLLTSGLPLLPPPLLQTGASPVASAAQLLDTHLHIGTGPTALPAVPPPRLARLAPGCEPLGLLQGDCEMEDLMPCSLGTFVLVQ

EC50 [1, 2] | IC50 (SIK1) | IC50 (SIK3) | EC50 [1, 3] | SMILES | EC50 ([1]; Homo sapiens, Macrophage, 20 h, read-out: TNFα EC50 (nM))
100 to 1000 nM | > 500 nM | 0.01 to 10 nM | – | COc1cc(-c2cnc3cc(OCCN4CCCC4)ccn23)cc2c1C(=O)N(CC(F)(F)F)CC2 [compound 123, 8-methoxy-6-[7-(2-pyrrolidin-1-ylethoxy)imidazo[1,2-a]pyridin-3-yl]-2-(2,2,2-trifluoroethyl)-3,4-dihydroisoquinolin-1-one] | –
– | 10 to 100 nM | 0.01 to 10 nM | 0.1 to 100 nM | COc1cc(-c2cnc3cc(OCC(O)CN4CCOCC4)ccn23)cc(OC(F)F)c1C(=O)NC1CC1 (single isomer, unassigned) [Cpd 387, N-cyclopropyl-2-(difluoromethoxy)-4-[7-(2-hydroxy-3-morpholino-propoxy)imidazo[1,2-a]pyridin-3-yl]-6-methoxy-benzamide] | –
100 to 1000 nM | 100 to 500 nM | 0.01 to 10 nM | – | COc1cc(-c2cnc3cc(OCC4(F)CN(C(=O)OC(C)(C)C)C4)ccn23)cc2c1C(=O)N(CC(F)(F)F)CC2 [compound 248, tert-butyl 3-fluoro-3-[[3-[8-methoxy-1-oxo-2-(2,2,2-trifluoroethyl)-3,4-dihydroisoquinolin-6-yl]imidazo[1,2-a]pyridin-7-yl]oxymethyl]azetidine-1-carboxylate] | –
100 to 1000 nM | 10 to 100 nM | 0.01 to 10 nM | – | COc1cc(-c2cnc3cc(OC[C@H]4COCCO4)ccn23)cc2c1C(=O)NCC2 [compound 242, 6-[7-[[(2R)-1,4-dioxan-2-yl]methoxy]imidazo[1,2-a]pyridin-3-yl]-8-methoxy-3,4-dihydro-2H-isoquinolin-1-one] | –
100 to 1000 nM | 100 to 500 nM | 0.01 to 10 nM | – | CNc1cc(-c2cnc3cc(OCCN(C)C)ccn23)cc(OC(F)F)c1C(=O)NCC(F)(F)F [Cpd 165, 2-(difluoromethoxy)-4-[7-[2-(dimethylamino)ethoxy]imidazo[1,2-a]pyridin-3-yl]-6-(methylamino)-N-(2,2,2-trifluoroethyl)benzamide] | –
100 to 1000 nM | 100 to 500 nM | 0.01 to 10 nM | – | CCN(CC)CCOc1ccn2c(-c3cc(OC)c(C(=O)NC4CC4)c(OC(F)F)c3)cnc2c1 [compound 107, N-cyclopropyl-4-[7-[2-(diethylamino)ethoxy]imidazo[1,2-a]pyridin-3-yl]-2-(difluoromethoxy)-6-methoxy-benzamide] | –
100 to 1000 nM | 100 to 500 nM | 0.01 to 10 nM | – | COc1cc(-c2cnc3cc(OCC4CCCCN4C)ccn23)cc(OC(F)F)c1C(=O)NC1CC1 (stereo not shown) [compound 23, N-cyclopropyl-2-(difluoromethoxy)-6-methoxy-4-[7-[(1-methyl-2-piperidyl)methoxy]imidazo[1,2-a]pyridin-3-yl]benzamide] | –
100 to 1000 nM | 10 to 100 nM | 0.01 to 10 nM | – | COc1cc(-c2cnc3cc(OCC4(C)CN(C)C4)ccn23)cc(OC(F)F)c1C(=O)NC1CC1 [compound 220, N-cyclopropyl-2-(difluoromethoxy)-4-[7-[(1,3-dimethylazetidin-3-yl)methoxy]imidazo[1,2-a]pyridin-3-yl]-6-methoxy-benzamide] | –
– | 10 to 100 nM | 0.01 to 10 nM | 100 to 1000 nM | COc1cc(-c2cnc3cc(OCC(O)CN4CCOCC4)ccn23)cc(OC(F)F)c1C(=O)NC1CC1 (single isomer, unassigned) [Cpd 386, N-cyclopropyl-2-(difluoromethoxy)-4-[7-(2-hydroxy-3-morpholino-propoxy)imidazo[1,2-a]pyridin-3-yl]-6-methoxy-benzamide] | –
1000 to 5000 nM | > 500 nM | 10 to 100 nM | – | COc1cc(-c2cnc3cc(OC(C)(C)CO)ccn23)cc(OC(F)F)c1C(=O)NC1CC1 [Cpd 209, N-cyclopropyl-2-(difluoromethoxy)-4-[7-(2-hydroxy-1,1-dimethyl-ethoxy)imidazo[1,2-a]pyridin-3-yl]-6-methoxy-benzamide] | –
100 to 1000 nM | 100 to 500 nM | 0.01 to 10 nM | – | COc1cc(-c2cnc3cc(OCC4CN(C)CCO4)ccn23)cc2c1C(=O)N(CC(F)(F)F)CC2 (stereo not shown) [compound 127, 8-methoxy-6-[7-[(4-methylmorpholin-2-yl)methoxy]imidazo[1,2-a]pyridin-3-yl]-2-(2,2,2-trifluoroethyl)-3,4-dihydroisoquinolin-1-one] | –
0.1 to 100 nM | 10 to 100 nM | 0.01 to 10 nM | – | COc1cc(-c2cnc3cc(OCCCN4CCCC(O)C4)ccn23)cc(OC(F)F)c1C(=O)NC1CC1 (stereo not shown) [compound 328, N-cyclopropyl-2-(difluoromethoxy)-4-[7-[3-(3-hydroxy-1-piperidyl)propoxy]imidazo [1,2-a]pyridin-3-yl]-6-methoxy-benzamide] | –
100 to 1000 nM | 100 to 500 nM | 0.01 to 10 nM | – | COc1cc(-c2cnc3cc(OCCN4CC(F)(F)C4)ccn23)cc2c1C(=O)N(CC(F)(F)F)CC2 [Cpd 244, 6-[7-[2-(3,3-difluoroazetidin-1-yl)ethoxy]imidazo[1,2-a]pyridin-3-yl]-8-methoxy-2-(2,2,2-trifluoroethyl)-3,4-dihydroisoquinolin-1-one] | –
100 to 1000 nM | 0.01 to 10 nM | 0.01 to 10 nM | – | COc1cc(-c2cnc3cc(OCCCN4CCC4)ccn23)cc(OC(F)F)c1C(=O)NC1CC1 [compound 274, 4-[7-[3-(azetidin-1-yl)propoxy]imidazo[1,2-a]pyridin-3-yl]-N-cyclopropyl-2-(difluoromethoxy)-6-methoxy-benzamide] | –
100 to 1000 nM | 10 to 100 nM | 0.01 to 10 nM | – | COc1cc(-c2cnc3cc(OCCCN4CCCC4)ccn23)cc(OC(F)F)c1C(=O)NC1CC1 [compound 275, N-cyclopropyl-2-(difluoromethoxy)-6-methoxy-4-[7-(3-pyrrolidin-1-ylpropoxy)imidazo[1,2-a]pyridin-3-yl]benzamide] | –
100 to 1000 nM | 100 to 500 nM | 10 to 100 nM | – | COc1cc(-c2cnc3cc(OCCN4CCOC[C@H]4C)ccn23)cc2c1C(=O)N(CC(F)(F)F)CC2 [compound 259, 8-methoxy-6-[7-[2-[(3R)-3-methylmorpholin-4-yl]ethoxy]imidazo[1,2-a]pyridin-3-yl]-2-(2,2,2-trifluoroethyl)-3,4-dihydroisoquinolin-1-one] | –
100 to 1000 nM | 100 to 500 nM | 0.01 to 10 nM | – | COc1cc(-c2cnc3cc(OC[C@@H]4COCCO4)ccn23)cc2c1C(=O)N(CC(F)(F)F)CC2 [compound 225, 6-[7-[[(2S)-1,4-dioxan-2-yl]methoxy]imidazo[1,2-a]pyridin-3-yl]-8-methoxy-2-(2,2,2-trifluoroethyl)-3,4-dihydroisoquinolin-1-one] | –
100 to 1000 nM | 10 to 100 nM | 0.01 to 10 nM | – | COc1cc(-c2cnc3cc(OCCN4CCN(C(C)C)CC4)ccn23)cc(OC(F)F)c1C(=O)NC1CC1 [compound 276, N-cyclopropyl-2-(difluoromethoxy)-4-[7-[2-(4-isopropylpiperazin-1-yl)ethoxy]imidazo[1,2-a]pyridin-3-yl]-6-methoxy-benzamide] | –
– | – | – | – | COc1cc(-c2cnc3cc(OCCN4CCOCC4)ccn23)cc2c1C(=O)N(CC(F)(F)F)CC2 [Cpd 88, 8-methoxy-6-[7-(2-morpholinoethoxy)imidazo [1,2-a]pyridin-3-yl]-2-(2,2,2-trifluoroethyl)-3,4-dihydroisoquinolin-1-one] | 100 to 1000 nM
